Experimental data: PMC12746157, “Light-Regulated Agonists Spatiotemporally Activating the Vitamin D Receptor Mitigate Psoriasis-like Inflammation in Mice without Inducing Hypercalcemia” (ACS Central Science, 2025)
“Also recorded” adds a separate entry of the source.

Experiments:
[1] = Photoisomerization quantum yield (MATLAB regression); assay type: physicochemical
Experimental: (§1) The UV–vis absorbance spectra of all molecules were measured in the dark and after the application of light of different wavelengths ranging from 365 to 770 nm (Figure A and Figures S1–S3). […] Consequently, violet/UV light below 405 nm efficiently promoted photoisomerization, which produced a dramatic decrease in the π-π* band and a significant increase in the n-π* band at around 445 nm (Table ). […] The proportion of molecules at the PSS in trans isomer upon constant illumination with light at 525 nm and cis at 365 nm was in general above 50%, reaching a remarkable >99% for compound 11d (Table and Figures S4 and S5). […] The greater stability of the trans isomer was consistent with previous quantum mechanical and molecular mechanics predictions. Measuring the photoisomerization properties of compound PhotoVDRM allowed us to determine the photoisomerization quantum yields of the compound by solving a differential equation for photoisomerization. We used MATLAB to perform regression and arrive at the following photoisomerization quantum yields: ϕ365 nm (trans) = 0.0427, ϕ365 nm (cis) = 0.0501, ϕ470 nm (trans) = 0.1857, and ϕ470 nm (cis) = 0.2281 (Figure S9). Compound PhotoVDRM was also evaluated in aqueous buffer used for pharmacological experiments (0.5% DMSO) showing a thermal relaxation of 3 h, almost 7 times faster than in pure DMSO (Figure B). […] A deeper photocharacterization of PhotoVDRM allowed us to measure the kinetics of photoconversion upon constant illumination with two wavelengths and three light intensities (Figure D and Figure S10). […] Indeed, with LED devices producing light at intensities as low as 0.05 mW/mm^2 we were able to transform trans to cis in around 15.5 s. This time was reduced to 6 and 2 s when the light intensity was increased to 0.15 and 0.75 mW/mm^2. […] Therefore, we proceeded to test the ability of the chemical library to activate the VDR under different light conditions.

[2] = tested on: IL-23-induced psoriatic-like inflammation; assay: IL-23-induced mouse model of psoriasis (ear thickness); assay type: in vivo, C57BL/6N mice; conditions: days 2-4, i.p. PhotoVDRM 0.5 mg/kg
Experimental: Each mice was administered interlueukin 23 (IL-23) once a day for a total of 3 days by intradermal injection (i.d.) into one of the mouse ears. Contralateral ear i.d. injected with PBS was used as control. Subsequently, ear thickness was measured daily, by using a digital caliper, as indicative of psoriasis-course progression (Figure A).
(A) Temporal scheme for IL-23-induced mouse model of psoriasis. Animals were treated with IL-23 (i.d.) in the left ear during three consecutive days (days 1, 2 and 3). In addition, a contralateral control was performed consisting of PBS administration in the right ear. At day 2, 3, and 4 animals were previously intraperitoneally (i.p.) administered with vehicle (saline) and drugs (i.e., LSN2148936; 0.005 mg/kg and PhotoVDRM; 0.5 mg/kg). Both ears were irradiated with 420 or 520 nm light at day 2, 3, and 4 during 8 min. […] (C) Inflammatory ear response measurements. Mice ear thickness determination in animals administrated (ip) on days 2, 3, and 4 with vehicle, LSN2148936 or PhotoVDRM treated with 420 or 520 nm light. Each day, ear thickness was measured in millimeters and represented as percentage of ear thickness increase using the first measurement of PBS-administrated ear as control. Data is shown as mean ± SD, n = 5 mice per group. Statistical analysis between PhotoVDRM and vehicle. *P < 0.05 and **P < 0.01 Student’s t test.

VDR = VDR (Homo sapiens, UniProt P11473); assay: Luminescent proximity homogeneous assay (AlphaScreen): interaction of purified VDR, RxR and TRAP220 coactivator fragment; assay type: biochemical; conditions: UVB narrowband light (315 nm) and visible illumination at 420 nm
[3] = Thermal relaxation and photoisomerization rates of PhotoVDRM in aqueous assay buffer; assay type: physicochemical; conditions: for photoisomerization rate (τ) trans to cis: 365 nm, aqueous buffer 0.6% DMSO
Experimental: as §1, with “S9).” for “S9). Compound PhotoVDRM was also evaluated in aqueous buffer used for pharmacological experiments (0.5% DMSO) showing a thermal relaxation of 3 h, almost 7 times faster than in pure DMSO (Figure B).”
2 Photochemical characterization of compound PhotoVDRM. (A) UV–vis absorption spectra of compound PhotoVDRM under different light conditions. (B) Half-lifetime estimation of compound PhotoVDRM, absorbance was measured at 365 nm. (C) Multiple cis/trans isomerization cycles (365/460 nm) show the stability of the compound over 6 cycles of light application. (D) Photoisomerization under constant illumination with light at 365 nm (violet shade) and 470 nm (blue shade). Light was applied with a CoolLED pe-4000 at 50% intensity that corresponded to 0.75 mW/mm^2 for the light at 365 nm and 0.56 mW/mm^2 for the light at 470 nm; 10% intensity corresponded to 0.15 mW/mm^2 for the light at 365 nm and 0.12 mW/mm^2 for the light at 470 nm; and 5% intensity corresponded to 0.06 mW/mm^2 for the light at 365 nm and 0.05 mW/mm^2 for the light at 470 nm. The photoisomerization rates (τ) using light at 365 nm were measured as 2, 6, and 15.5 s with 50%, 10% and 5% of intensity. […]

VDR, sequence (P11473 whole entry, the tested form may be a part): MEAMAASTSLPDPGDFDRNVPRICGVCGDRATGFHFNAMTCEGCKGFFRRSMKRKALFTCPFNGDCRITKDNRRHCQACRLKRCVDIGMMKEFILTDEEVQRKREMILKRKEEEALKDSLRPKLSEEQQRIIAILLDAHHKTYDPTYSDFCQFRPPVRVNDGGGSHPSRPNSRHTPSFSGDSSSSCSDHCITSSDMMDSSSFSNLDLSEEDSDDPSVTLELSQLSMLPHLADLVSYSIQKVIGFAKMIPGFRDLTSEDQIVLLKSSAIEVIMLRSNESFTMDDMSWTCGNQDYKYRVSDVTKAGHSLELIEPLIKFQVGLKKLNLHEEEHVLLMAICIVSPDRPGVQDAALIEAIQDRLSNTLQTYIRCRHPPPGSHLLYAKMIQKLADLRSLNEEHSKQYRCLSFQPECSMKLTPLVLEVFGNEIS
VDR, sequence (P19793 whole entry partner, the tested form may be a part): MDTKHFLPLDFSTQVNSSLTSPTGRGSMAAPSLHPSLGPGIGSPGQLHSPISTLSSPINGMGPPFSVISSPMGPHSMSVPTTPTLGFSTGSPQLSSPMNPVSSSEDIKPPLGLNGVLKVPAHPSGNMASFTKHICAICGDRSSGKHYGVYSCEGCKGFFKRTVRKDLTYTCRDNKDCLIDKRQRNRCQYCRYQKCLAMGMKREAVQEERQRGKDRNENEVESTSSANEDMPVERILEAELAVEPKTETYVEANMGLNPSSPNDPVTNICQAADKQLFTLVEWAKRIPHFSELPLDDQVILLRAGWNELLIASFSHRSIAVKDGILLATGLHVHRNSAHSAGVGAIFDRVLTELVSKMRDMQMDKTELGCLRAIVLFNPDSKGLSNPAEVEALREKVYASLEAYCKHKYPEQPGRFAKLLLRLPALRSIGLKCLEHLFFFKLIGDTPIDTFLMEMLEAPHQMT
VDR, sequence (Q15648 whole entry partner, the tested form may be a part): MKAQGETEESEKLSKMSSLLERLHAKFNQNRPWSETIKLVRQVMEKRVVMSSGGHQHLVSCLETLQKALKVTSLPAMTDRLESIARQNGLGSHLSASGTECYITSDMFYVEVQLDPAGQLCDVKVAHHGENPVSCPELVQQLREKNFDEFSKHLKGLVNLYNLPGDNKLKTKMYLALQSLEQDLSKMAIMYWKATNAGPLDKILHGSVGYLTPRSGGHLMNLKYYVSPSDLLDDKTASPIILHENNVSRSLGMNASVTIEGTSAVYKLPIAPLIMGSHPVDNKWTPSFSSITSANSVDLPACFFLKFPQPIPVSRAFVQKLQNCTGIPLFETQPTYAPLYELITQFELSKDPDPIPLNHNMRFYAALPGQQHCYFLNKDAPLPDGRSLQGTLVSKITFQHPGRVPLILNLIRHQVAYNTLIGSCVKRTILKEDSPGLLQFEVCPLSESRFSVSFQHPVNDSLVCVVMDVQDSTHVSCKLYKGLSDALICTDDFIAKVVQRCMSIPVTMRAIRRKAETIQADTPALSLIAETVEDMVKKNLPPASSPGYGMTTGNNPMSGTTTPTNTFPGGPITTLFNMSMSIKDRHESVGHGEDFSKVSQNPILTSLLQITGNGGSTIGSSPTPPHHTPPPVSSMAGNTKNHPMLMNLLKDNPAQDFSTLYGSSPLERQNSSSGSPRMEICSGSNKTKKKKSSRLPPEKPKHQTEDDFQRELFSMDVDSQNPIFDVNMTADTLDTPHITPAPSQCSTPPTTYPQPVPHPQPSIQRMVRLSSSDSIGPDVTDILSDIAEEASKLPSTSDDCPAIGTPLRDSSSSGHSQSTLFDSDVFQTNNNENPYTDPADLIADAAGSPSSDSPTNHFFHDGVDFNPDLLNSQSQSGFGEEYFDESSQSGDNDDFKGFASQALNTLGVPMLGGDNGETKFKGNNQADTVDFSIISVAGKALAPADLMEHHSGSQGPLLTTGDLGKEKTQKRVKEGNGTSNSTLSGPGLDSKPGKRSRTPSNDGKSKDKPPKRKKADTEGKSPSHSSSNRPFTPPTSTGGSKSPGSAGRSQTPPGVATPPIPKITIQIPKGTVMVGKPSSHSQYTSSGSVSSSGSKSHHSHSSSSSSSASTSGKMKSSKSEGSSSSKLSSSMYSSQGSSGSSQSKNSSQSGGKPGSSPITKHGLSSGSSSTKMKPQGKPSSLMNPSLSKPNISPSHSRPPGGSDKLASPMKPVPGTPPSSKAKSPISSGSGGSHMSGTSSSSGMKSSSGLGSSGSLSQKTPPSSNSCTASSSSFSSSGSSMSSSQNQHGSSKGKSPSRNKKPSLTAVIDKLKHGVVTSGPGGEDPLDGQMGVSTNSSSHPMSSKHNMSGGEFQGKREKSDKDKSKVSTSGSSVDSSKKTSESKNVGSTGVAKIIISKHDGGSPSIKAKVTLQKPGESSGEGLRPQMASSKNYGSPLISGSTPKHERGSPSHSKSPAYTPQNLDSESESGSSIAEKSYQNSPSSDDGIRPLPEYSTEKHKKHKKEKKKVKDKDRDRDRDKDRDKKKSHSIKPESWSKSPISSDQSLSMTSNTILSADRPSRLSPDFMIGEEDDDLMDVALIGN

Cc1cc(OCC(O)C(C)(C)C)ccc1N=Nc1cccc(-c2ccc(C(=O)O)cc2)c1 (centres unmarked) [Compound 11b]
photoisomerization quantum yield ϕ365 nm (cis) ([1]; 365 nm, cis): 0.0501
photoisomerization quantum yield ϕ365 nm (trans) ([1]; 365 nm, trans): 0.0427
photoisomerization quantum yield ϕ470 nm (cis) ([1]; 470 nm, cis): 0.2281
photoisomerization quantum yield ϕ470 nm (trans) ([1]; 470 nm, trans): 0.1857
IL-23-induced ear inflammation (ear thickness) ([2]; 420 nm light 8 min): significant reduction; also recorded: full antipsoriatic activity
IL-23-induced ear inflammation (ear thickness) ([2]; 520 nm light 8 min): only partially reduces
modulation of activity by light (VDR): modulated the activity
photoisomerization rate (τ) trans to cis ([3]; 10% intensity, 0.15 mW/mm^2, 25 °C): 6 s
photoisomerization rate (τ) trans to cis ([3]; 50% intensity, 0.75 mW/mm^2, 25 °C): 2 s
thermal relaxation ([3]; aqueous buffer used for pharmacological experiments (0.5% DMSO)): 3 h
thermal relaxation in aqueous buffer, times faster than in pure DMSO ([3]; buffer vs pure DMSO): ~7 times
